Assay results published in US7332568B2, “Q3 SPARC deletion mutant and uses thereof” (Abraxis BioScience, Inc., priority 2005, dated 2008).

Tested on: gp60-mediated caveolar transcytosis
Test: Inhibition of transport of paclitaxel from ABX across endothelial monolayers
Type: cell-based, human
Description: Transport was dependent on albumin.

Row | Compound | effect on transport of paclitaxel from ABX across endothelial monolayers
1 | CCN1C(=O)C=CC1=O [NEM] | inhibited
2 | β-methyl cyclodextrin [BMC] | inhibited
